These results are taken from patent US10130642B2, “Neprilysin inhibitors” (THERAVANCE BIOPHARMA R&D IP, LLC, priority 2011, dated 2018).

Sequence of human NEP (P08473 52-750): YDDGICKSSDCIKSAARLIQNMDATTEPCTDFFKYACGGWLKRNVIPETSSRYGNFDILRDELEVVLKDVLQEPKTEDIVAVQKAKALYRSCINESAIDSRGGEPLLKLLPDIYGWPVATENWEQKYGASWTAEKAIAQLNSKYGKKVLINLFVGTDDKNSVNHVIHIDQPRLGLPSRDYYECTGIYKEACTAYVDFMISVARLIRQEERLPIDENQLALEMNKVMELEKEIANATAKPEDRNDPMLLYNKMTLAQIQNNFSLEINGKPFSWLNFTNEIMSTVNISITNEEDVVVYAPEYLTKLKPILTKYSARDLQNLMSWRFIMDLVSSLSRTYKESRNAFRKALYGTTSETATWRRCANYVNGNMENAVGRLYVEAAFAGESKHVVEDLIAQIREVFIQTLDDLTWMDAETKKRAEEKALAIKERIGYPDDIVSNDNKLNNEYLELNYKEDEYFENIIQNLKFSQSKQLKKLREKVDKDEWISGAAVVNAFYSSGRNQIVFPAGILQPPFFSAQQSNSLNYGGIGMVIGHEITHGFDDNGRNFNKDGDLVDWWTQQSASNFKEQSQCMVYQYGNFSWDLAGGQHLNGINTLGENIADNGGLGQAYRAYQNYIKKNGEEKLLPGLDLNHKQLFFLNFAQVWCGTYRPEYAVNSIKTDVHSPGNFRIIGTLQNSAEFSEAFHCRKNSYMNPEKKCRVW

One assay concerns the target human NEP (Homo sapiens (Human), UniProt P08473). Briefly: In vitro enzyme inhibition assay, inhibitor potencies at human NEP.
Conditions: not given
In the case of `O=C(N[C@H](Cc1ccc(-c2ccccc2)cc1)C[C@@H](CO)C(=O)O)c1cc(-c2ccccc2Cl)n[nH]1` [Example 4-27, (2S,4S)-5-Biphenyl-4-yl-4-{[5-(2-chloro-phenyl)-2H-pyrazole-3-carbonyl]-amino}-2-hydroxymethyl-pentanoic acid], the Ki is no more than 1 nM. As for `O=C(N[C@H](Cc1ccc(-c2ccccc2)cc1)C[C@@H](CO)C(=O)O)c1c[nH]c(O)n1` [Example 4-31, (2S,4S)-5-Biphenyl-4-yl-4-[(2-hydroxy-1H-imidazole-4-carbonyl)-amino]-2-hydroxymethyl-pentanoic acid], the Ki is 12.6 to 100 nM. In the case of `O=C(N[C@H](Cc1ccc(-c2ccccc2)cc1)C[C@@H](CO)C(=O)O)c1nc(O)n[nH]1` [Example 4-14, (2S,4S)-5-Biphenyl-4-yl-2-hydroxymethyl-4-[(5-hydroxy-2H-[1,2,4]triazole-3-carbonyl)-amino]-pentanoic acid], the Ki is no more than 1 nM. Still for that read-out and setting: for `O=C(N[C@H](Cc1ccc(-c2ccccc2)cc1)C[C@H](CO)C(=O)O)c1cnn[nH]1` [Example 4-1, (2R,4S)-5-Biphenyl-4-yl-2-hydroxymethyl-4-[(3H-[1,2,3]triazole-4-carbonyl)-amino]-pentanoic acid] the value was 1.26 to 10 nM.

On to `C[C@@](CO)(C[C@@H](Cc1ccc(-c2ccccc2)cc1)NC(=O)c1cn(Cc2ccccc2)nn1)C(=O)O` [Example 6-6, (2S,4R)-4-[(1-Benzyl-1H-[1,2,3]triazole-4-carbonyl)-amino]-5-biphenyl-4-yl-2-hydroxymethyl-2-methyl-pentanoic acid], for which the Ki lay within 12.6 to 100 nM. The compound `CC(C)(c1ccc(-c2ccccc2)cc1)[C@H](C[C@@H](CO)C(=O)O)NC(=O)c1cn(O)nn1` [Example 10-1, (2S,4S)-5-Biphenyl-4-yl-2-hydroxymethyl-4-[(1-hydroxy-1H-[1,2,3]triazole-4-carbonyl)-amino]-5-methyl-hexanoic acid] came in with a Ki of no more than 1 nM. As for `O=C(N[C@H](Cc1ccc(-c2cccc(F)c2)cc1)C[C@@H](CO)C(=O)O)c1cc(-c2ccccc2Cl)n[nH]1` [Example 4-29, (2S,4S)-4-{[5-(2-Chlorophenyl)-2H-pyrazole-3-carbonyl]-amino}-5-(3′-fluorobiphenyl-4-yl)-2-hydroxymethyl-pentanoic acid], the Ki is no more than 1 nM. `O=C(N[C@H](Cc1ccc(-c2ccccc2)cc1)C[C@@H](CO)C(=O)O)c1cc(O)n[nH]1` [Example 4-17, (2S,4S)-5-Biphenyl-4-yl-2-hydroxymethyl-4-[(5-hydroxy-2H-pyrazole-3-carbonyl)-amino]-pentanoic acid] came in with a Ki of no more than 1 nM. `O=C(NC(Cc1ccc(-c2ccccc2)cc1)C[C@H](CO)C(=O)O)c1cc(Cl)c2nc[nH]c2c1` (stereo partly drawn) [Example 4-36, (R)-5-Biphenyl-4-yl-4-[(7-chloro-3H-benzoimidazole-5-carbonyl)-amino]-2-hydroxymethyl-pentanoic acid]: the Ki fell in the range of 1.26 to 10 nM. Same read-out and setting: in the case of `O=C(N[C@H](Cc1ccc(-c2cccc(F)c2)cc1)C[C@@H](CO)C(=O)O)c1cc(-c2ccccn2)n[nH]1` [Example 4-30, (2S,4S)-5-(3′-Fluorobiphenyl-4-yl)-2-hydroxymethyl-4-[(5-pyridin-2-yl-2H-pyrazole-3-carbonyl)-amino]-pentanoic acid] it was no more than 1 nM. The compound `O=C(N[C@H](Cc1ccc(-c2ccccc2)cc1)C[C@@H](CO)C(=O)O)c1cc(O)no1` [Example 4-45, (2S,4S)-5-Biphenyl-4-yl-4-[(3-hydroxy-isoxazole-5-carbonyl)-amino]-2-hydroxymethyl-pentanoic acid] displayed a Ki of no more than 1 nM. Turning to `Cc1nc2c(Cl)cc(C(=O)NC(Cc3ccc(-c4ccccc4)cc3)C[C@H](CO)C(=O)O)cc2[nH]1` (stereo partly drawn) [Example 4-38, (R)-5-Biphenyl-4-yl-4-[(7-chloro-2-methyl-3H-benzoimidazole-5-carbonyl)-amino]-2-hydroxymethyl-pentanoic acid], the Ki lay in the range of 12.6 to 100 nM. As to `CCCCc1cc(C(=O)N[C@H](Cc2ccc(-c3ccccc3)cc2)C[C@@H](CO)C(=O)O)[nH]n1` [Example 4-28, (2S,4S)-5-Biphenyl-4-yl-4-[(5-butyl-2H-pyrazole-3-carbonyl)-amino]-2-hydroxymethyl-pentanoic acid], the Ki was no more than 1 nM.

Consider `CN(C)C(=O)c1cc(C(=O)N[C@H](Cc2ccc(-c3ccccc3)cc2)C[C@H](CO)C(=O)O)[nH]n1` [Example 4-20, (2R,4S)-5-Biphenyl-4-yl-4-[(5-dimethylcarbamoyl-2H-pyrazole-3-carbonyl)-amino]-2-hydroxymethyl-pentanoic acid], for which the inhibition constant Ki was 12.6 to 100 nM. `O=C(N[C@H](Cc1ccc(-c2ccccc2)cc1)C[C@@H](CO)C(=O)O)c1cnc(O)nc1` [Example 4-47, (2S,4S)-5-Biphenyl-4-yl-2-hydroxymethyl-4-[(2-hydroxy-pyrimidine-5-carbonyl)-amino]-pentanoic acid] had a Ki of no more than 1 nM. On the same count and under the same terms, for `C[C@@](CO)(C[C@@H](Cc1ccc(-c2ccccc2)cc1)NC(=O)c1nc(Cl)n[nH]1)C(=O)O` [Example 6-1, (2S,4R)-5-Biphenyl-4-yl-4-[(5-chloro-2H-[1,2,4]triazole-3-carbonyl)-amino]-2-hydroxymethyl-2-methyl-pentanoic acid] the value was 1.26 to 10 nM; for `CC(=O)c1cc(C(=O)N[C@H](Cc2ccc(-c3ccccc3)cc2)C[C@@](C)(CO)C(=O)O)[nH]n1` [Example 6-16, (2S,4R)-4-[(5-Acetyl-2H-pyrazole-3-carbonyl)-amino]-5-biphenyl-4-yl-2-hydroxymethyl-2-methyl-pentanoic acid], 12.6 to 100 nM; for `O=C(N[C@H](Cc1ccc(-c2cccc(Cl)c2)cc1)C[C@@H](CO)C(=O)O)c1ccc2nnn(O)c2c1` [Example 4-34, (2S,4S)-5-(3′-Chloro-biphenyl-4-yl)-4-[(3-hydroxy-3H-benzotriazole-5-carbonyl)-amino]-2-hydroxymethyl-pentanoic acid], no more than 1 nM.

In turn, `O=C(N[C@H](Cc1ccc(-c2ccccc2)cc1)C[C@@H](CO)C(=O)O)c1cn(O)nn1` [Example 4-7, (2S,4S)-5-Biphenyl-4-yl-2-hydroxymethyl-4-[(1-hydroxy-1H-[1,2,3]triazole-4-carbonyl)-amino]-pentanoic acid] returned an inhibition constant Ki of no more than 1 nM. Consider `Cc1n[nH]c(C(=O)N[C@H](Cc2ccc(-c3ccccc3)cc2)C[C@@H](CO)C(=O)O)n1` [Example 4-13, (2S,4S)-5-Biphenyl-4-yl-2-hydroxymethyl-4-[(5-methyl-2H-[1,2,4]triazole-3-carbonyl)-amino]-pentanoic acid], for which the Ki lay in the range of 12.6 to 100 nM. Compound `O=C(N[C@H](Cc1ccc(-c2cccc(F)c2)cc1)C[C@@H](CO)C(=O)O)c1cnn[nH]1` [Example 4-3, (2S,4S)-5-(3′-Fluorobiphenyl-4-yl)-2-hydroxymethyl-4-[(3H-[1,2,3]triazole-4-carbonyl)-amino]-pentanoic acid] displayed a Ki of no more than 1 nM. With `O=C(NC(Cc1ccc(-c2ccccc2)cc1)C[C@@H](CO)C(=O)O)c1cnc2nn[nH]c2c1` (stereo partly drawn) [Example 4-43, (S)-5-Biphenyl-4-yl-2-hydroxymethyl-4-[(1H-[1,2,3]triazolo[4,5-b]pyridine-6-carbonyl)-amino]-pentanoic acid], the Ki was 1.26 to 10 nM. For `O=C(N[C@H](Cc1ccc(-c2cccc(Cl)c2)cc1)C[C@@H](CO)C(=O)O)c1c[nH]nn1` [Example 4-9, (2S,4S)-5-(3′-Chloro-biphenyl-4-yl)-2-hydroxymethyl-4-[(1H-[1,2,3]triazole-4-carbonyl)-amino]-pentanoic acid], the Ki was no more than 1 nM. Same read-out and setting: for `O=C(NC(Cc1ccc(-c2ccccc2)cc1)C[C@@H](CO)C(=O)O)c1cc(F)c2nn[nH]c2c1` (stereo partly drawn) [Example 4-33, (S)-5-Biphenyl-4-yl-4-[(7-fluoro-3H-benzotriazole-5-carbonyl)-amino]-2-hydroxymethyl-pentanoic acid] the value was no more than 1 nM; for `O=C(N[C@H](Cc1ccc(-c2ccccc2)cc1)C[C@@H](CO)C(=O)O)c1cc(C(=O)N2CCC2)n[nH]1` [Example 4-24, (2S,4S)-4-{[5-(Azetidine-1-carbonyl)-2H-pyrazole-3-carbonyl]-amino}-5-biphenyl-4-yl-2-hydroxymethyl-pentanoic acid], no more than 1 nM.

In the case of `C[C@@](CO)(C[C@@H](Cc1ccc(-c2ccccc2)cc1)NC(=O)c1cc(O)no1)C(=O)O` [Example 6-19, (2S,4R)-5-Biphenyl-4-yl-4-[(3-hydroxy-isoxazole-5-carbonyl)-amino]-2-hydroxymethyl-2-methyl-pentanoic acid], the Ki was no more than 1 nM. `O=C(O)c1cc(C(=O)N[C@H](Cc2ccc(-c3ccccc3)cc2)C[C@@H](CO)C(=O)O)[nH]n1` [Example 4-18, 5-((1S,3S)-1-Biphenyl-4-ylmethyl-3-carboxy-4-hydroxy-butylcarbamoyl)-1H-pyrazole-3-carboxylic acid] displayed a Ki of no more than 1 nM. The same measure, in the same setting: for `C[C@@](CO)(C[C@@H](Cc1ccc(-c2ccccc2)cc1)NC(=O)c1cc(O)n[nH]1)C(=O)O` [Example 6-17, (2S,4R)-5-Biphenyl-4-yl-2-hydroxymethyl-4-[(5-hydroxy-2H-pyrazole-3-carbonyl)-amino]-2-methyl-pentanoic acid] the value was 1.26 to 10 nM.

In the case of `C[C@@](CO)(C[C@@H](Cc1ccc(-c2ccccc2F)cc1)NC(=O)c1cn(O)nn1)C(=O)O` [Example 8-4, (2S,4R)-5-(2′-Fluoro-biphenyl-4-yl)-2-hydroxymethyl-4-[(1-hydroxy-1H-[1,2,3]triazole-4-carbonyl)-amino]-2-methyl-pentanoic acid], the inhibition constant (Ki) was no more than 1 nM.

Still in this assay, the particulars now being: pKi values at human NEP; recombinant human NEP, fluorogenic peptide substrate, 37° C.
For the compound `C[C@@](CO)(C[C@@H](Cc1ccc(-c2cccc(F)c2)cc1)NC(=O)c1cc(C(=O)O)n[nH]1)C(=O)O` [Example 7, 5-[(1R,3S)-3-Carboxy-1-(3′-fluorobiphenyl-4-ylmethyl)-4-hydroxy-3-methyl-butylcarbamoyl]-1H-pyrazole-3-carboxylic Acid], the pKi is on record as no less than 9.0. On to `COCCN(C)C(=O)c1cc(C(=O)N[C@H](Cc2ccc(-c3ccccc3)cc2)C[C@@H](CO)C(=O)O)[nH]n1` [Example 4-22], for which the negative logarithm of the Ki (pKi) was 8.0-8.9. For the compound `O=C(N[C@H](Cc1ccc(-c2ccccc2)cc1)C[C@@H](CO)C(=O)O)c1cnn[nH]1` [Example 1B, (2S,4S)-5-Biphenyl-4-yl-2-hydroxymethyl-4-[(3H-[1,2,3]triazole-4-carbonyl)-amino]-pentanoic acid], the pKi is reported as no less than 9.0.
